Measurements from paper PMC2206373, “Identification of an altered peptide ligand based on the endogenously presented, rheumatoid arthritis-associated, human cartilage glycoprotein-39(263–275) epitope: an MHC anchor variant peptide for immune modulation” (Arthritis Research & Therapy, 2007).
Read-outs that look alike come from different tables or passages of the source. No end group written: not given here.

Legend:
[1] = target: HLA-DR4(B1*0401) (Homo sapiens, UniProt P01903+P01911, A100K/A169T/F76Y/I96L/K127E/L162R/M171V/N62H/P40V/Q125Y/R42H/S133A/S149N/S66Y/V115G/V209L/W38E); assay: HLA-DR4 competition peptide binding assay; details: competition with biotinylated HA307-319 (Y309F) 50 nM, purified HLA-DR4 30 nM, pH 5, 48 h, room temperature
Method: HLA-DR bound marker peptide was separated from free marker peptide and the amount of bound marker peptide was detected and quantified by enhanced chemoluminescense. Inhibition curves were generated and the IC50 was determined. The concentration of competitor peptide inducing 50% inhibition of marker peptide binding was determined, and expressed as the 50% inhibitory concentration (IC50 in μM).

[2] = system: T cell hybridoma 5G11; assay: T hybridoma 5G11 IL-2 response; format: cell-based, mouse; details: for Hybridoma response (SI) 5G11: IL-2 by ELISA after 48 h, peptide 10 μg/ml, SI > 2 positive
[3] = system: T cell hybridoma 8B12; assay: T hybridoma 8B12 IL-2 response; format: cell-based, mouse; details: for Hybridoma response (SI) 8B12: IL-2 by ELISA after 48 h, peptide 10 μg/ml, SI > 2 positive
[4] = system: T cell hybridoma 20H5; assay: T hybridoma 20H5 IL-2 response; format: cell-based, mouse; details: for Hybridoma response (SI) 20H5: IL-2 by ELISA after 48 h, peptide 10 μg/ml, DRB1*0401 BLCL as APC, SI > 2 positive
Method: The T cell hybridomas, provided by G Sonderstrup (Stanford, CA, USA), were generated as described. In brief, human CD4, HLA-DRA*101/HLA-DRB*0401 triple transgenic (HLA-DR4trg) mice (devoid of I-Aβ) were immunized in the footpad with 50 μg of purified HC gp-39 mixed in incomplete Freund's adjuvant (IFA). Draining lymph nodes were isolated and T-cell hybridomas were generated by polyethylene glycol fusion of primed and in vitro antigen-restimulated lymph node cells with the AKR BW5147 fusion partner. Following fusion, growth-positive hybridoma wells were screened for reactivity to HC gp-39 and a set of 55 peptides (16 amino acids in length) covering the entire HC gp-39 sequence. HLA-DR4(B1*0401)-restricted hybridomas responsive to both the HC gp-39 protein and the immunodominant epitope 263–275 of HC gp-39 (for example, 5G11, 8B12, 14G11 and 20H5) were cloned, subcloned, characterised and selected for further study.
HC gp-39-specific IL-2 production by T hybridomas was measured in wells of round-bottomed microtiter plates. Hybridoma cells (2 to 5 × 10^4) and irradiated APC (0.5 to 1 × 10^5; 12,000 to 16,000 RAD) from the B lymphoblastoid cell line (BLCL) carrying the DRB1*0401 specificity were incubated in 150 μl volumes. Antigen was added in 50 μl volumes to duplicate wells. After 48 h, 100 μl of the culture supernatant was assayed for IL-2 production using a sandwich ELISA with Pharmingen antibodies specific for mouse IL-2. The antigen sensitivity of the hybridomas to both peptide and protein was determined (Figure 2). […] In later assays, an excess of peptide or APL (10 μg/ml), inducing maximal responses in all hybridomas, was tested.

[5] = system: popliteal lymph node cells from HC gp-39(263–275)-immunized huCD4, HLA-DR4 transgenic mice; assay: Antigen-specific proliferation of popliteal lymph node cells from WT peptide-immunized mice; format: cell-based, mouse; details: 96 h, tritiated thymidine, background 407 cpm, SI > 2 positive, SD not above 30%
Method: (§1) Mice, obtained from L Fugger (Oxford, UK), were immunized in the hind footpads with 2 × 50 μg of purified recombinant HC gp-39, with 2 × 100 μg of the WT peptide or with 2 × 100 μg of the APL (F265(Dip); compound 28; Figure 1) mixed in IFA. Seven days later, popliteal lymph node cell suspensions (1 to 2 × 10^5 cells/well) were stimulated in vitro with HC gp-39 (50, 10 or 2 μg/ml), HC gp-39(263–275) or APL (10, 2 and 0.4 μg/ml). At 96 h, 50 μl of culture medium was harvested for analysis of antigen-specific cytokine production using Luminex technology (mouse cytokine 18 Plex Panel, catalogue no. 171-F11181, Biorad, Bio-Rad Laboratories, Hercules, CA, USA). In addition, cultures were labelled with tritiated thymidine (for 18 h) and antigen-specific proliferation was determined. We state that all animal experimentation received ethics approval and animals were treated according to the recognized guidelines.

[6] = system: popliteal lymph node cells from HC gp-39(263–275)-immunized huCD4, HLA-DR4 transgenic mice; assay: Antigen-specific cytokine production of popliteal lymph node cells from WT peptide-immunized mice; format: cell-based, mouse; details: for IFNγ concentration / MIP1α concentration / RANTES concentration: 96 h supernatant, Luminex
Method: as §1

[7] = system: popliteal lymph node cells from F265(Dip)-immunized HLA-DR4trg mice; assay: Antigen-specific cytokine production of popliteal lymph node cells from F265(Dip)-immunized mice; format: cell-based, mouse; details: Figure 4b
Method: as §1

[8] = system: B1*0101; details: cited from earlier work
Text: (§2) Four TCR contact sites (Ala268, Ser269, Glu271 and Thr272) are important for polyclonal T cell activation. No information is available on important residues in the MHC α-chain, but for the β chain information on MHC restriction can be used (data not shown). The peptide does bind to HLA-DRB1*0402, B1*0405 and B1*0101 [7]. […] This leads to the view of the MHC-peptide complex in Figure 3b. Some of these MHC β-chain residues are th ...

[9] = system: B1*0405; details: cited from earlier work
Text: as §2

[10] = target: HLA-DRB1*0402 (Homo sapiens, UniProt P01903+P01911, A100E/A169T/F76Y/K127E/L162R/M171V/N62H/P40V/Q125Y/Q99D/R42H/S133A/S149N/S66Y/V209L/W38E); details: cited from earlier work
Text: as §2

[11] = Figure 2a dose response, IL-2 ELISA after 48 h
[12] = Figure 4a, WT peptide-immunized HLA-DR4trg mice

RSFTLASSETGVG [Compound 1, HC gp-39(263–275)]
IC50 ([1]; Figure 1, read-out: DRB1*0401 binding IC50): 10 nM
IC50 ([1]; Table 1, geometric mean of two experiments, read-out: HLA-DR binding IC50): 120 nM
T hybridoma (SI) 5G11 ([2]; Figure 1, IL-2 production, DRB1*0401 BLCL as APC, duplicate or triplicate, background 29,203 counts, ±30% of WT response = super/partial agonist): 29 SI
Peptide concentration for half maximal stimulation (IL-2), 5G11 [2, 11]: 2 µg/mL
Hybridoma response (SI) 5G11 ([2]; Table 1, DRB1*0401 BLCL as APC, background 8,147 counts, representative of at least three experiments): 13 SI
Hybridoma response (SI) 5G11 ([2]; Table 2, DRB1*0401 BLCL as APC, background 17,238 counts, SD not above 15%): 17 SI
T hybridoma (SI) 8B12 ([3]; Figure 1, IL-2 production, DRB1*0401 BLCL as APC, duplicate or triplicate, background 16,288 counts, ±30% of WT response = super/partial agonist): 19 SI
Peptide concentration for half maximal stimulation (IL-2), 8B12 [3, 11]: 0.21 µg/mL
Hybridoma response (SI) 8B12 ([3]; Table 1, DRB1*0401 BLCL as APC, background 7,470 counts, representative of at least three experiments): 9 SI
Hybridoma response (SI) 8B12 ([3]; Table 2, DRB1*0401 BLCL as APC, background 8,773 counts, SD not above 15%): 39 SI
Peptide concentration for half maximal stimulation (IL-2), 20H5 [4, 11]: 0.02 µg/mL
Hybridoma response (SI) 20H5 ([4]; Table 1, background 35,749 counts, representative of at least three experiments): 26 SI
Hybridoma response (SI) 20H5 ([4]; Table 2, background 290,666 counts, SD not above 15%): 5 SI
Prol (SI) ([5]; peptide 0.4 μg/ml): 3 SI
Prol (SI) ([5]; peptide 2 μg/ml): 6 SI
Prol (SI) ([5]; peptide 10 μg/ml): 8 SI
Ex vivo recall IFNγ production in words [6, 12]: significant levels
Ex vivo recall Mip1α production in words [6, 12]: significant levels
Ex vivo recall RANTES production in words [6, 12]: significant levels
IFNγ concentration ([6]; peptide 0.4 μg/ml): <5 pg/mL
MIP1α concentration ([6]; peptide 0.4 μg/ml): 25 pg/mL
RANTES concentration ([6]; peptide 0.4 μg/ml): 6 pg/mL
IFNγ concentration ([6]; peptide 2 μg/ml): 6 pg/mL
MIP1α concentration ([6]; peptide 2 μg/ml): 128 pg/mL
RANTES concentration ([6]; peptide 2 μg/ml): 13 pg/mL
IFNγ concentration ([6]; peptide 10 μg/ml): 16 pg/mL
MIP1α concentration ([6]; peptide 10 μg/ml): 252 pg/mL
RANTES concentration ([6]; peptide 10 μg/ml): 23 pg/mL
In vitro recall IFNγ production in words [7]: failed to induce significant levels
In vitro recall Mip1α production in words [7]: failed to induce significant levels
In vitro recall RANTES production in words [7]: failed to induce significant levels
Binding to HLA-DRB1*0101 in words [8]: does bind
Binding to HLA-DRB1*0405 in words [9]: does bind
Binding to HLA-DRB1*0402 in words [10]: does bind
